{"source": "ChEMBL document CHEMBL5465560", "about": "“Selectivity Literature for EUbOPEN Chemogenomic Library” (2024)", "key": {"[1]": {"biological_target": "Mitogen-activated protein kinase kinase kinase 9 (Homo sapiens) (UniProt P80192)", "sequence (P80192 whole entry, looked up)": "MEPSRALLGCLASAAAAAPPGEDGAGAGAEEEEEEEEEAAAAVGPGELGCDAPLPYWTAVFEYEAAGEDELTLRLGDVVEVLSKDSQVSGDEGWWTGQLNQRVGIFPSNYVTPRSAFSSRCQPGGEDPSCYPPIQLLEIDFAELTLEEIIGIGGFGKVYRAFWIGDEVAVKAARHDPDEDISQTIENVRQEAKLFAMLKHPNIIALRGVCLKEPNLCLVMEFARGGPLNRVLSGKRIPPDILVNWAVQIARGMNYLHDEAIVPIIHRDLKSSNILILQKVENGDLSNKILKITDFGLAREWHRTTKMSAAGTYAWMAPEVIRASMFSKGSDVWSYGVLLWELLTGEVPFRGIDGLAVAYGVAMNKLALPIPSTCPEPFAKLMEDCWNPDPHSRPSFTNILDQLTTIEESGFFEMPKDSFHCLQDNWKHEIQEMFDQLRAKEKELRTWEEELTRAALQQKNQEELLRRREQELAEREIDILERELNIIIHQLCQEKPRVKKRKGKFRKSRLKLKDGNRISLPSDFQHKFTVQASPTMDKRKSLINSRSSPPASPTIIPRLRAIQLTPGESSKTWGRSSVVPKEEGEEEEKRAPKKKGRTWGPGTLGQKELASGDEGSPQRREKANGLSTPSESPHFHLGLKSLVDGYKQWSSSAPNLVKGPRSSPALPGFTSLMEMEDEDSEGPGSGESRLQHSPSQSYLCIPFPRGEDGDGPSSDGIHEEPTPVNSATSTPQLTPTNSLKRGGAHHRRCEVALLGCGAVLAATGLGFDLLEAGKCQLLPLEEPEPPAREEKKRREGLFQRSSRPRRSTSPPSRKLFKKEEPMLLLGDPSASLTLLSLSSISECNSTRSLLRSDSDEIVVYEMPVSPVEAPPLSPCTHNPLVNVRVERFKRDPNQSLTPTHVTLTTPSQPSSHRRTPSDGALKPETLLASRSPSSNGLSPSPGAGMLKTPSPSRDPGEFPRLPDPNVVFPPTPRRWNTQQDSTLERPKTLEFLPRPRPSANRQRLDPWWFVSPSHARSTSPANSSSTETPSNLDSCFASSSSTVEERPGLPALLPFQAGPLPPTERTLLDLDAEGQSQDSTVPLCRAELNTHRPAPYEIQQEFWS", "assay": "Selectivity interaction (KinomeScan (DiscoverX)) EUB0000045b MAP3K9"}, "[2]": {"biological_target": "Fibroblast growth factor receptor 4 (Homo sapiens, UniProt P22455)", "assay": "Selectivity interaction (KinomeScan (DiscoverX)) EUB0000695a FGFR4", "settings": "at 100 nM"}, "[3]": {"biological_target": "Ribosomal protein S6 kinase beta-1 (Homo sapiens, UniProt P23443)", "sequence (P23443 whole entry, looked up)": "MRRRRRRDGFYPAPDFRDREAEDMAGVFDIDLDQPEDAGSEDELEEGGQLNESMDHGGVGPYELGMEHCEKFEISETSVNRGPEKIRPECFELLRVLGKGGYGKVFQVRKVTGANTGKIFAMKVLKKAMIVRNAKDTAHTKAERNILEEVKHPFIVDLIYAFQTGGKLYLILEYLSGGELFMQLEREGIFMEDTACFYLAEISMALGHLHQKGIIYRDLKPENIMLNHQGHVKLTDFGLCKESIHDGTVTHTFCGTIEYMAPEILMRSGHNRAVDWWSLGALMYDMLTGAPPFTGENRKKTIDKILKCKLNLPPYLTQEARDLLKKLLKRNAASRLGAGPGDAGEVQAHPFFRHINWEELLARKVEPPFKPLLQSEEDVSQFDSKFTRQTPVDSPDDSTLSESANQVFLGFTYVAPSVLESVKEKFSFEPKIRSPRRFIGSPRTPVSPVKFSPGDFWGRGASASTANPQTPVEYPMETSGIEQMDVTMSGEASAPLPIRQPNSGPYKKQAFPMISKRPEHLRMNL", "assay": "Selectivity interaction (Kinase panel (Z-LYTE Assay)) EUB0001632a RPS6KB1", "settings": "at 10 µM"}, "[4]": {"biological_target": "T1, Discoidin domain-containing receptor 2 (Homo sapiens) (UniProt Q16832)", "T1 sequence (whole entry)": "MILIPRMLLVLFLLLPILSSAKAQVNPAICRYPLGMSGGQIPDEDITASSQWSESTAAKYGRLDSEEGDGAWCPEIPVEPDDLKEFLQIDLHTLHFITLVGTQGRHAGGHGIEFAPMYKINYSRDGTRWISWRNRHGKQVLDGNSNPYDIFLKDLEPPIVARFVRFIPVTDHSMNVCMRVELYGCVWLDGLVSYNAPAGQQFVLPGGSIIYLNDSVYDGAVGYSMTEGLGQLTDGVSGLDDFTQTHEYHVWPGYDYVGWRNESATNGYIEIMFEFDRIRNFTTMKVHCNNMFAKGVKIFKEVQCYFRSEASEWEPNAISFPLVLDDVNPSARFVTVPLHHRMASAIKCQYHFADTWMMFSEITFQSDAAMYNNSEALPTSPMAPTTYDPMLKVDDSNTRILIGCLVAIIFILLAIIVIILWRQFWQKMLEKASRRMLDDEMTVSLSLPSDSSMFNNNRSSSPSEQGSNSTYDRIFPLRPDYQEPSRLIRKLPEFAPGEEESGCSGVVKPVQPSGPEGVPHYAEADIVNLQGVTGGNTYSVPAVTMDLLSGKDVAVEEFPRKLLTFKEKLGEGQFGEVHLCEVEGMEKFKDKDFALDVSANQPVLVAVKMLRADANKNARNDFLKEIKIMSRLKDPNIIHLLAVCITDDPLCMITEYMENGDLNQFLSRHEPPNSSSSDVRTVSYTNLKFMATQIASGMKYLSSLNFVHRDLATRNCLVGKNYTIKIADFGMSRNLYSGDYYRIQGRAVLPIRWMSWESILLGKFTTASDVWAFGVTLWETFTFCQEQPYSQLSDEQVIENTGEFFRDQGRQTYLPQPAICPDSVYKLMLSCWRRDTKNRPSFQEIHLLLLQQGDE", "assay": "(§1) Selectivity interaction (LanthaScreen Eu Kinase Binding Assay) EUB0001632a DDR2", "settings": "at 10 µM"}, "[5]": {"test_system": "T2, Discoidin domain-containing receptor 2 (Homo sapiens), Q16832 [T654M]", "T2 sequence (whole entry)": "T1 sequence (whole entry) with T654M", "assay": "as §1", "settings": "at 10 µM"}, "[6]": {"test_system": "T3, Discoidin domain-containing receptor 2 (Homo sapiens), Q16832 [N456S]", "T3 sequence (whole entry)": "T1 sequence (whole entry) with N456S", "assay": "as §1", "settings": "at 10 µM"}, "[7]": {"biological_target": "Interferon-induced, double-stranded RNA-activated protein kinase (Homo sapiens) (UniProt P19525)", "sequence (P19525 whole entry)": "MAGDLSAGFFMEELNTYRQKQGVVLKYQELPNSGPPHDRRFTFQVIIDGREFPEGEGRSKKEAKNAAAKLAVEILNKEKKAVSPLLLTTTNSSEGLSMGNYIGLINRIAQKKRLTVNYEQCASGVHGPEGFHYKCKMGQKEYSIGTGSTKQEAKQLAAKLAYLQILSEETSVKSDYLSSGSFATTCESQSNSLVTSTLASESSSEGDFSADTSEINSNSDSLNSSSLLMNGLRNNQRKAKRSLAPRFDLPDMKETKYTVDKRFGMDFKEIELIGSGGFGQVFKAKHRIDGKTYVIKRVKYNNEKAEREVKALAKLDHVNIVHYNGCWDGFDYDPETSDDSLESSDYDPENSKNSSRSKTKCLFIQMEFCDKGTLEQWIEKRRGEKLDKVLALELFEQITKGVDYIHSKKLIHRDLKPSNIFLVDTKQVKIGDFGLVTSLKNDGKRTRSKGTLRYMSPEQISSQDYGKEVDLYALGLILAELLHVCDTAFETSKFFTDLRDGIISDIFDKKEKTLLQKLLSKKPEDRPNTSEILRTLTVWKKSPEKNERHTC", "assay": "Selectivity interaction (KinomeScan (DiscoverX)) EUB0000618a EIF2AK2", "settings": "at 10 µM"}, "[8]": {"biological_target": "Vascular endothelial growth factor receptor 1 (Homo sapiens) (UniProt P17948)", "sequence (P17948 whole entry)": "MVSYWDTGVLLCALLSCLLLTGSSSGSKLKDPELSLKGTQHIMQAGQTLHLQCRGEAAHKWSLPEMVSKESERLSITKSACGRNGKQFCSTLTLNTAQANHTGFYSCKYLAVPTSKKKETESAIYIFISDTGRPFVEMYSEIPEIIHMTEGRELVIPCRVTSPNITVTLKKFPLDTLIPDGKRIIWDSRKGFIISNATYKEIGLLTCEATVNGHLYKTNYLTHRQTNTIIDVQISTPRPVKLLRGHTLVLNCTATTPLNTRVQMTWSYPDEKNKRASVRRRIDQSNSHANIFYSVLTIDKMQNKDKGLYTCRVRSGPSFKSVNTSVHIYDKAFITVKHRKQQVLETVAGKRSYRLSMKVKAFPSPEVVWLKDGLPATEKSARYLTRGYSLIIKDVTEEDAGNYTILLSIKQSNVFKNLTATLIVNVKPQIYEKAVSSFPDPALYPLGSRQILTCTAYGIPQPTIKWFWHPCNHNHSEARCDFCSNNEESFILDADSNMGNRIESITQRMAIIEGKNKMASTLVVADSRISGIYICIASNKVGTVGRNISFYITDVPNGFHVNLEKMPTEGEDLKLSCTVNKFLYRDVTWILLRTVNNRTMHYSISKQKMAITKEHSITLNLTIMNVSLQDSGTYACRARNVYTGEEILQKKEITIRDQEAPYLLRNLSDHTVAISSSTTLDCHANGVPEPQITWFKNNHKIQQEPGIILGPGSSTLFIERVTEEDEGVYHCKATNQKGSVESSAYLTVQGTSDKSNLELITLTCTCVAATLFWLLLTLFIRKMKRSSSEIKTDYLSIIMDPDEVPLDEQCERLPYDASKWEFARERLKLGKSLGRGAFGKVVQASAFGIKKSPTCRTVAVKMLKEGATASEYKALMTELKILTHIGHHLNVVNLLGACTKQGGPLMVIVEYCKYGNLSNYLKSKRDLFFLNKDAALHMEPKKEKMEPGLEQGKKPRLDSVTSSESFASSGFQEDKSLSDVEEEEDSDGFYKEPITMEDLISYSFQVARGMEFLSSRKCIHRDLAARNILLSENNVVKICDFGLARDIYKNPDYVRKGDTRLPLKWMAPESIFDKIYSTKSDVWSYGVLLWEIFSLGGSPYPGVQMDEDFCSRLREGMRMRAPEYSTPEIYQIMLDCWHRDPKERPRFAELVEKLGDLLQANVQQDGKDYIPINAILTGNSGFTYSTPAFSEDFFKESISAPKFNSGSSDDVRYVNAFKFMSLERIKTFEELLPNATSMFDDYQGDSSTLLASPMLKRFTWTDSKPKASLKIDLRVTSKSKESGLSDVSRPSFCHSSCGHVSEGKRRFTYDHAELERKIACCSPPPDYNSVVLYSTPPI", "assay": "Selectivity interaction (KinomeScan (DiscoverX)) EUB0000655a FLT1", "settings": "at 10 µM"}, "[9]": {"biological_target": "Tyrosine-protein kinase receptor Tie-1 (Homo sapiens) (UniProt P35590)", "sequence (P35590 whole entry)": "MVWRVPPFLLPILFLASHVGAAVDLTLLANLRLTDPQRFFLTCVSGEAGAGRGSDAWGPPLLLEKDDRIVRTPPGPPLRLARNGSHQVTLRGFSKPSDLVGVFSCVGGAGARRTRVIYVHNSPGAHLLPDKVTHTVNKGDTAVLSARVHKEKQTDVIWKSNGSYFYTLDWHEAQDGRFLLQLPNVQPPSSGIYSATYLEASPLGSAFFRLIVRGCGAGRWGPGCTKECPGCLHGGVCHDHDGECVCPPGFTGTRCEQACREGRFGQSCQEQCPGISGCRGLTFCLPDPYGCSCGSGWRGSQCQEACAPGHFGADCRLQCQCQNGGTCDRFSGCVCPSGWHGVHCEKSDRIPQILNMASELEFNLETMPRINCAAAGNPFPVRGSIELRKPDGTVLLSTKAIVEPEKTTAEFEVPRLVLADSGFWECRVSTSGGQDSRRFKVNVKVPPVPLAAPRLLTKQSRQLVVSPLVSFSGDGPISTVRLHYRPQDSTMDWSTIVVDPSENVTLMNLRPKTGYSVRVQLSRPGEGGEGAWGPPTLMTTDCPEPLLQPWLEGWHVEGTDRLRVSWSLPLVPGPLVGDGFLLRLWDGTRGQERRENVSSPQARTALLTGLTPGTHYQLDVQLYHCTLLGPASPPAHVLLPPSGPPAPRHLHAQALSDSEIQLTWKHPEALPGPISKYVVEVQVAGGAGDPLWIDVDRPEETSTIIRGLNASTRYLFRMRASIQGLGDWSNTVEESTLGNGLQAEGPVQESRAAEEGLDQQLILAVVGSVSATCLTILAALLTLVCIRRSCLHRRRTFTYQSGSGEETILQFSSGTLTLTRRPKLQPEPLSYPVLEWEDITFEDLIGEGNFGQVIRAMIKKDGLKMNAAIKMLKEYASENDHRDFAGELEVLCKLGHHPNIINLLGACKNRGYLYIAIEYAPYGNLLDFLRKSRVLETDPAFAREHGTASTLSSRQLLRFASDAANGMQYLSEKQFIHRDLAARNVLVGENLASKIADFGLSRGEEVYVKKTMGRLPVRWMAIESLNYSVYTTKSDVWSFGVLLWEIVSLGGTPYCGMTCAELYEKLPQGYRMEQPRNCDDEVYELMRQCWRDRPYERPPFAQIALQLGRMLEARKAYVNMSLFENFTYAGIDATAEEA", "assay": "Selectivity interaction (KinomeScan (DiscoverX)) EUB0000655a TIE1", "settings": "at 10 µM"}}, "note": "Substitutions are numbered along the chain they refer to."}
{"smiles": "C=CC(=O)Nc1cc(-n2c(=O)ccc3cnc4ccc(-c5ccc(NS(C)(=O)=O)cc5)cc4c32)ccc1C", "values": [{"measurement": "% of control", "setting": "[1]; at 1 µM", "value": 100, "unit": "%"}, {"measurement": "% of control", "setting": "[1]; at 10 µM", "value": 83, "unit": "%"}]}
{"smiles": "Cc1cc(F)c(C(=O)Nc2cccc(-c3nncn3C(C)C)n2)cc1-n1cnc(C2CC2)c1", "values": [{"measurement": "% of control", "setting": "[2]", "value": 100, "unit": "%"}]}
{"smiles": "Cn1cc(-n2cnc3c(NCc4nc5cc(Cl)c(Cl)cc5[nH]4)nc(N4CCOCC4)nc32)cn1", "values": [{"measurement": "% of control", "setting": "[3]", "value": 2.46, "unit": "%"}, {"measurement": "% of inhibition", "setting": "[4]", "value": -2.81, "unit": "%"}, {"measurement": "% of inhibition", "setting": "[5]", "value": -29.9, "unit": "%"}, {"measurement": "% of inhibition", "setting": "[6]", "value": -20.1, "unit": "%"}]}
{"smiles": "O[C@H]1CC[C@H](Nc2ncc3nc(Nc4c(F)cc(F)cc4F)n([C@H]4CCOC4)c3n2)CC1", "values": [{"measurement": "% of control", "setting": "[7]", "value": 100, "unit": "%"}]}
{"smiles": "CN(C)CCOc1ccc(-c2nc(-c3ccncc3)c(-c3ccc4c(c3)CC/C4=N\\O)[nH]2)cc1", "values": [{"measurement": "% of control", "setting": "[8]", "value": 79, "unit": "%"}, {"measurement": "% of control", "setting": "[9]", "value": 44, "unit": "%"}]}
